Measured values taken from patent US7422883B2, “Map kinase integrin-binding domain” (Inter-K Pty Limited, priority 2000, dated 2008).
No end group written: not given here.

Legend:
ERK2 = molecular target: T1, ERK2 (Mus musculus, UniProt P63085); experiment: ELISA of ERK2 binding to biotinylated integrin cytoplasmic domain peptides
T1 construct: GST (glutathione-S-transferase); made in house
Description: Peptide fragments corresponding to regions of the cytoplasmic tail domain of the β6 subunit were screened in an enzyme-linked immunosorbent assay (ELISA) for binding with ERK2. The 52 amino acid long β6 cytoplasmic tail is shown in FIG. 16 as are the amino acid sequences for the cytoplasmic domains of the β1 to β3 subunits. In particular, four synthetic peptides designated fragment 1 to fragment 4 were prepared and biotinylated at the N-terminal end of each, respectively (Auspep Pty Ltd, Melbourne Australia).
Overlapping biotinylated fragments 1 to 4 were coated onto streptavidin coated polystyrene plates (Pierce, Rockford Ill. USA, Cat No. 15125) and the ELISA performed substantially according to manufacturers instructions. Briefly, wells are washed with 3×200 μl of wash buffer (TBS, 0.1% BSA, 0.05% Tween 20 or SuperBlock™ blocking buffer in TBS, Pierce, Prod. No. 37535) prior to addition of biotinylated peptides (100 μl) and incubation for 1 hr at room temperature to allow for capture of the peptides on the plate. Following another washing step, peptides were overlayed with GST-ERK, ERK (or JNK-1) alone at a volume of 100 μl per well, and the plates incubated for a further 1 hr at room temperature before removal of any unbound ERK by further washing.
Binding of ERK to the peptides is detected using 100 μl anti-ERK1/2 mAb SC1647 (Santa Cruz) as the primary antibody at a dilution of 1:700 (isotype matched antibody IgG2b is used as a control). This is followed by another washing step and addition of 100 μl rabbit anti-mouse antibody (Biorad) conjugated to alkaline phosphatase at a concentration of 1:1000 for 30 minutes again at room temperature. A […] of detection reagent (alkaline phosphatase detection kit-Biorad) is then introduced into each well after a final washing step and allowed to react for 15-30 minutes at room temperature in the dark before absorbance is measured at 405 nm. All dilutions of peptides, MAP kinase and antibodies were performed using the wash buffer. GST-ERK is a fusion protein consisting of ERK coupled to glutathione-S-transferase and purified from host cells transfected with pGEX vector.
To further localise the binding domain on the cytoplasmic tail of the β6 subunit, progressively shorter peptides from the region of the β6 cytoplasmic tail corresponding to peptide fragment 2 were synthesised, biotinylated and the capacity to associate or otherwise bind to ERK2 assessed as described above. The binding of GST.ERK2 to a 15 mer test peptide (seq. 4) having the amino acid sequence RSKAKWQTGTNPLYR (SEQ ID NO: 7) and a 10 mer test peptide having the sequence RSKAKWQTGT (SEQ ID NO: 21) is shown in FIG. 20 compared to fragment 2 over a range of concentrations of the peptides. […] 4 peptide compared to fragment 2 was found. Binding of ERK2 to the seq. 3 peptide was substantially less than that observed for seq. 4.
Binding of ERK2 to the seq.4 peptide (RSKAKWQTGTNPLYR) (SEQ ID NO: 7) was compared with peptides corresponding to regions of the cytoplasmic domain of integrin subunits β1, β2, β3 and β5. The amino acid sequences for those peptides is shown below:
To evaluate this, cell lysates containing equal protein loads were prepared from SW480 wild-type cells and SW480 cells transfected with either vector alone (mock transfectants), wild type β6 or the β6 deletion mutant Δ746-764 (lacking the sequence EAERSKAKWQTGTNPLYRG (SEQ ID NO: 26), Cone et al, 1994). The lysates were immunoprecipitated with mAbs R6G9 (anti-β6), P1F6 (anti-β5) or murine IgG control antibody (mlgG). […] To determine whether β5 can bind ERK2 in vitro, a 15-mer peptide fragment derived from the β5 cytoplasmic domain corresponding to the ERK binding domain on β6 was tested for its ability to bind ERK2 in an ELISA.

HT29 colon cancer cells = experiment: WST-1 growth inhibition study, HT29; type: cell-based, human; details: HT29, 10 μm, 24 hours, serum-free; FIG. 28
Description: (§1) HT29 and SW480 β6-expressing colon cancer cell lines were seeded into wells of 96-well microtitre plates (Nunclon) in Dulbecco's Modified Eagle's Medium (DMEM) supplemented with 10% foetal bovine serum, glutamine, Hepes, and antibiotics. […] The cell proliferation reagent WST-1 is designed to be used for the non-radioactive, spectrophotometric quantification of cell growth and viability in proliferation and chemosensitivity assays. […]
(§2) Specifically, at the termination of experiments, 30 μl of WST-1 was added to 270 μl culture medium volume in each microtitre well and the colour change quantitated in an ELISA plate reader by measuring absorbance of the formazan product at […] (using a reference wavelength of more than 600 nm). The mean absorbance readings from triplicate wells (±standard error of the means) after subtraction of background control wells (culture medium without cells) was determined.

SW480 β6 transfectants = experiment: WST-1 growth inhibition, SW480 β6-expressing cells; type: cell-based, human; details: 30 μm, 24 hours, serum-free, FIG. 29
Description: as §1, §2
[…] Percentage inhibition was assessed by the WST-1 colorimetric dehydrogenase assay described in Example 6. […]

SW480 cells = experiment: In vitro wound assay (cell migration); type: cell-based, human; details: SW480 lacking αvβ6, 1.25-10 μM, 48 hours, 1% foetal calf serum; FIG. 40
Description: The wound assay was performed by seeding 2×10^5 cells into 24 well (1.6 cm diameter) tissue culture plates in Dulbecco's modified Eagles medium (DMEM) supplemented by 10% foetal calf serum, HEPES, glutamine and antibiotics. The confluent cell monolayers were streaked with the tip of a plastic pipette in a cross-wire fashion, and loose non-adherent cells washed off gently with medium before replacing the culture medium with DMEM supplemented with 1% foetal calf serum. In addition, RSKAKWQTGTNPLYR (SEQ ID NO: 7) peptide ligated to penetratin (carrier peptide) by means of cysteine Cys (Npys) bonding was added to each well at a final concentration in the range of 1.25-10 μM. Cell migration across the wounded (streaked) area was photographed (Techpan, Kodachrome, ASA100) after a further 48 hours in culture. […] The conditions utilised in the assay were as follows: A: no peptide-penetratin complex added, B: 2.5 μM peptide-penetratin complex added, C: 5 μM peptide-penetratin complex added, D: 10 μM peptide-penetratin complex added.

T1 sequence (P63085 whole entry, the tested form may be a part): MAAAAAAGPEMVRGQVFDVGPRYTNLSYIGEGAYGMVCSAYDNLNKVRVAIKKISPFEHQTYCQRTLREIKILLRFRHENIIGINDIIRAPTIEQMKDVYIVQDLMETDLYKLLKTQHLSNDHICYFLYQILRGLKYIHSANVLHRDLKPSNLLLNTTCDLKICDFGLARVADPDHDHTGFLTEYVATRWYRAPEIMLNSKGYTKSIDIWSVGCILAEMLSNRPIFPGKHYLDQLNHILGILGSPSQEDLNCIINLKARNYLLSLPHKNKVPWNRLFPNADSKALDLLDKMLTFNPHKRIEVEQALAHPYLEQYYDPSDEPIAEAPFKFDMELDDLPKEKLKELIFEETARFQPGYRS

**Q.** Which “binding of ERK2 to integrin subunit peptides” value (ERK2; corrected for non-specific binding, FIG. 34) does the source give for “RSKAKWQTGTNPLYR (also: biotinylated, site not given here) [seq. 4, 15 mer fragment of the β6 cytoplasmic domain]” here?
**A.** significant binding

**Q.** And the “binding of GST.ERK2 to peptide” value (ERK2; over a range of concentrations of the peptides, compared to fragment 2, FIG. 20)?
**A.** no reduction in binding

**Q.** What about the “inhibition of cell proliferation (WST-1)” value (HT29 colon cancer cells) of the same sequence?
**A.** Only the carrier penetratin-peptide complex was effective in inhibiting cell proliferation in contrast to either peptide or penetratin alone

**Q.** What about the “inhibition of cell proliferation (WST-1)” value (SW480 β6 transfectants) of the same sequence?
**A.** Only the carrier penetratin-peptide complex was effective in inhibiting cell proliferation in contrast to either peptide or penetratin alone

**Q.** And the “cell migration across wounded area (wound repair)” value (SW480 cells)?
**A.** not stimulated
